Test results: ChEMBL document CHEMBL1201862, “PubChem BioAssay data set” (2004)
Active and inactive are the calls of the source.

Legend:
[1] = target: Peroxisome proliferator-activated receptor gamma/Nuclear receptor coactivator 2 (Homo sapiens, UniProt P37231); assay type: functional;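 note: agonist potency for raising coactivator recruitment to the receptor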
[2] = target: Peroxisome proliferator-activated receptor gamma/Nuclear receptor coactivator 3 (Homo sapiens, UniProt P37231); assay type: functional;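 note: agonist potency for raising coactivator recruitment to the receptor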
[3] = target: Peroxisome proliferator-activated receptor gamma/Nuclear receptor coactivator 1 (Homo sapiens, UniProt P37231); assay type: functional;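 note: agonist potency as compounds enhance coactivator SRC-1 recruitment to PPARgamma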
[4] = cells
[5] = target: T1, Cytochrome P450 2C9 (Homo sapiens, UniProt P11712); details: Potency
T1 sequence (P11712 whole entry): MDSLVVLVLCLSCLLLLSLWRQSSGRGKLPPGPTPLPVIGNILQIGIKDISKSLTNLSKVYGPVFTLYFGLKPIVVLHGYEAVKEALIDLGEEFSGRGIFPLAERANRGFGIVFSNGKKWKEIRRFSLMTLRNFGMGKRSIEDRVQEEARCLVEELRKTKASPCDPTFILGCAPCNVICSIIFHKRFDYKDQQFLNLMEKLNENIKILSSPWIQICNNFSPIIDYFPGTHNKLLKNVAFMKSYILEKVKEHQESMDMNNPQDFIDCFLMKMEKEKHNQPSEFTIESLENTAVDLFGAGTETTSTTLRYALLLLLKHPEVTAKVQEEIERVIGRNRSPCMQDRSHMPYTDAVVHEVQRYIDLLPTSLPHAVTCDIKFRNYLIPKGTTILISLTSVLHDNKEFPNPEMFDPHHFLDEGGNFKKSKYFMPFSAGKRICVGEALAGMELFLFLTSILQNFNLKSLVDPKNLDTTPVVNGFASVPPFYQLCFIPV

[6] = target: Cytochrome P450 2D6 (Homo sapiens, UniProt P10635); experiment: qHTS Assay for Inhibitors and Substrates of Cytochrome P450 2D6. [Related pubchem assays: 410 ]; assay type: ADME; details: read-out: Potency
Chain of Cytochrome P450 2D6 (P10635 whole entry): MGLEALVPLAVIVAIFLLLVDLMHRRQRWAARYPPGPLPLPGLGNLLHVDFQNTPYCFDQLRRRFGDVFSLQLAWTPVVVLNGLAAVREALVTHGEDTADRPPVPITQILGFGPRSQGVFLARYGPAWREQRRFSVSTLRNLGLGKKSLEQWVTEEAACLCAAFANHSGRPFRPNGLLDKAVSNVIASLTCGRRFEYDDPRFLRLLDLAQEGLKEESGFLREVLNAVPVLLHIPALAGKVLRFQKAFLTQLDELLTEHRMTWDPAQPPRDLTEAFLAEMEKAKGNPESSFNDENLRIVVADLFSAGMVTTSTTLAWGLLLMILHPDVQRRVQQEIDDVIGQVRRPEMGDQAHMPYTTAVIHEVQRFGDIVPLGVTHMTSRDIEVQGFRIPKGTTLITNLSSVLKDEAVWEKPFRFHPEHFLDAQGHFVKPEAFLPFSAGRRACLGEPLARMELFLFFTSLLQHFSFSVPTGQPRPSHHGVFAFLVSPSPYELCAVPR

[7] = target: T2, Tyrosine-protein phosphatase non-receptor type 7 (Homo sapiens, UniProt P35236); experiment: HePTP tyrosine phosphatase activity blockers – biochemical, absorbance, leukemia target, primary screen (AID 521); assay type: functional
T2 sequence (P35236 whole entry): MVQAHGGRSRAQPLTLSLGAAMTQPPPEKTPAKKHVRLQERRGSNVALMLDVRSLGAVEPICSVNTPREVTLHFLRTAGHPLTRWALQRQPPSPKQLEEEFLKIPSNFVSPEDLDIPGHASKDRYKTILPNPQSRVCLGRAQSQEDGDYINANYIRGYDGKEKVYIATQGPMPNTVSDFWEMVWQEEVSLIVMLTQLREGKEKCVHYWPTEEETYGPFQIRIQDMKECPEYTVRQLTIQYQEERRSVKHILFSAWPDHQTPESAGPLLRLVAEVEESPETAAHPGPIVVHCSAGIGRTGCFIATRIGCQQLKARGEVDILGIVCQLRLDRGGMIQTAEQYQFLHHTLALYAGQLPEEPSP

[8] = target: T3, Cytochrome P450 3A4 (Homo sapiens, UniProt P08684); details: Potency
T3 sequence (P08684 whole entry): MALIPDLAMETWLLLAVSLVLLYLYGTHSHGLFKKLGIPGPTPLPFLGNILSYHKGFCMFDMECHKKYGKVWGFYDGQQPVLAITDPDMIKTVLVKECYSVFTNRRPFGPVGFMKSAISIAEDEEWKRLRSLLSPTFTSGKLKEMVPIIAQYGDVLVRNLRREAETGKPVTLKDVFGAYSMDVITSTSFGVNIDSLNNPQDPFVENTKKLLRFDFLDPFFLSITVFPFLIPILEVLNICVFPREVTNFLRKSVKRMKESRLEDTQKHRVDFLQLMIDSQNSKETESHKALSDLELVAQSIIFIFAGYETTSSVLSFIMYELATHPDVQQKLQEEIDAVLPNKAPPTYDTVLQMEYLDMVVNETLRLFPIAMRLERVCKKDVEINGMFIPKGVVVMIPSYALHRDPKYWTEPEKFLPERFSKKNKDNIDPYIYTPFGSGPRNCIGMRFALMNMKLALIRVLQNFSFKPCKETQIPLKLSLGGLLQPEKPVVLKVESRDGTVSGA

[9] = target: Paired box protein Pax-8 (Homo sapiens, UniProt Q06710); experiment: PAX8 transcriptional activity inhibition in RMG-I – RMG-I cells, luciferase, cherry-pick, dose response (AID 687027); assay type: functional, cell-based;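 note: luciferase reporter driven by Pax8 target thyroperoxidase promoter measured by SteadyGlo luminescence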
Chain of Paired box protein Pax-8 (Q06710 whole entry): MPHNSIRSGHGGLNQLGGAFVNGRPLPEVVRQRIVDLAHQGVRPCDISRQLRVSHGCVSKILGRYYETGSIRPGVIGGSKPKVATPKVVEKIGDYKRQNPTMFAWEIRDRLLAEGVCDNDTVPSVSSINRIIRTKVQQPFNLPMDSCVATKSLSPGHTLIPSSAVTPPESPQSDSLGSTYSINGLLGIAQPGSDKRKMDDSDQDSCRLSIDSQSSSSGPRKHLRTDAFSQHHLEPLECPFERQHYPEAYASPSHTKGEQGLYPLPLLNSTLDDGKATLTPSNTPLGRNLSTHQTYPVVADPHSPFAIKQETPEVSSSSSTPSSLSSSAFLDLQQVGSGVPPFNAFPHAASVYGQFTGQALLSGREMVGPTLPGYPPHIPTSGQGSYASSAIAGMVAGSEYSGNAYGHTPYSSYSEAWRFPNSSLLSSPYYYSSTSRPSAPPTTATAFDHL

[10] = OVCAR-3 cell viability loss – plate reader, dry powder samples, PAX8 inhibitor project, dose response (AID 743044); assay type: functional, cell-based
[11] = toxicity to human hepatoma HepG2 cells – cell-based, cherry-picked samples, cytotoxicity control, dose response (AID 1159577); assay type: functional
[12] = P. falciparum Dd2 growth inhibitors, dose response, SYBR Green, cherry-picked samples (AID 1159567); assay type: functional, cell-based
[13] = M. tuberculosis H37Rv growth inhibitors, H37Rv strain (AID 1626); assay type: functional
[14] = target: T4, Caspase-6 (Homo sapiens, UniProt P55212); experiment: inhibition of CASP6 peptide cleavage – biochemical, VEID-R110 fluorescence, cherry-pick, dose response (AID 720632)
T4 sequence (P55212 whole entry): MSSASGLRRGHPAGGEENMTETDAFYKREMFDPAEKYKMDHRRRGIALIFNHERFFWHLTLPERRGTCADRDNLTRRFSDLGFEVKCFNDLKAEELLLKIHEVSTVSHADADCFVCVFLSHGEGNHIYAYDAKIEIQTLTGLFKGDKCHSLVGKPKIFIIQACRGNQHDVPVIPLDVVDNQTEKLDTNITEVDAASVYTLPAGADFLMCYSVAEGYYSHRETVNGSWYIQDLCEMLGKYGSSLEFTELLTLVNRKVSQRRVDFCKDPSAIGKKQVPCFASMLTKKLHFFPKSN

[15] = target: T5, Carboxy-terminal domain RNA polymerase II polypeptide A small phosphatase 1 (Homo sapiens, UniProt Q9GZU7); experiment: CTDSP1 inhibitors, concentration-response, biochemical, absorbance readout, ultra-high-throughput screen actives (AID 540297); assay type: functional
T5 sequence (Q9GZU7 whole entry): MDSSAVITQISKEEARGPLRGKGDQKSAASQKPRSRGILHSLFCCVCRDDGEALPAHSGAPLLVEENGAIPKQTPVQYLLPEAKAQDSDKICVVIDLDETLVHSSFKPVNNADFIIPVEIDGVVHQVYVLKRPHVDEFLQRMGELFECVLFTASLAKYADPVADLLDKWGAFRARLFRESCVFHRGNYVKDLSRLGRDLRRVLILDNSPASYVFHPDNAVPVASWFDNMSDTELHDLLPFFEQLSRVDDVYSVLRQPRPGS

[16] = Trypanosoma cruzi growth suppression in host cells – NIH3T3 host cells, beta-gal luminescence, confirmation (AID 2044); assay type: functional, cell-based;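 note: intracellular parasites grown in NIH/3T3 mouse fibroblasts as host cells; luminescent beta-galactosidase reporter signal from transgenic T. cruzi replicating inside host cells; inhibitors lower the luminescence signal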
[17] = NIH3T3 cell viability loss – ATP luminescence, mouse fibroblasts, counter-screen, dose response (AID 2010); assay type: functional, cell-based;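 note: cells exposed to compound for about 90 hours before reading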
[18] = viability of uninfected HEp-2 cells – cell-based, HTS, cytotoxicity control for RSV inhibitor project, dose response (AID 2410); assay type: functional; details: human respiratory syncytial virus
[19] = test system: Streptococcus; experiment: GAS UMAA2166 growth inhibition – luminescence, BacTiterGlo, counter-screen for streptokinase expression inhibitor project, dose response (AID 1915); assay type: functional, organism-based;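 note: potency for reduction of bacterial viability or growth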
[20] = test system: Streptococcus sp. 'group A'; experiment: Streptococcus pyogenes SK(-)GAS viability under kanamycin – luminescence, BacTiterGlo, confirmation, counter-screen for streptokinase expression inhibitor project, dose response (AID 1900); assay type: functional, organism-based
[21] = fluconazole-exposed Candida albicans growth modulators – fluorescence, retest, confirmation (AID 2467); assay type: functional, cell-based
[22] = mitochondrial function rescue without frataxin homolog – Friedreich's ataxia, plus single-dose screen, dose response (AID 1465); assay type: functional;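 note: yeast depleted of Yfh1p frataxin homolog grown on glycerol needing respiration; WST-1 tetrazolium dye reduction as measure of cellular dehydrogenase metabolic activity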
[23] = NIH-3T3 fibroblast cytotoxicity, dose response, cytotoxicity control, cell-based, fluorescence, Alamar Blue, secondary assay (AID 2327); assay type: functional;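 note: NIH-3T3 mouse fibroblasts cultured with fluconazole at 8 µg/mL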
[24] = target: T6, Streptokinase A (Streptococcus pyogenes serotype M1, UniProt P10520); experiment: viability-normalized secreted streptokinase activity reduction – plasminogen activation absorbance, OD405, dose response (AID 1914); assay type: functional, Streptococcus pyogenes M1 GAS;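 note: secreted streptokinase activity via plasminogen activation per viability signal from cell pellet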
T6 sequence (P10520 whole entry): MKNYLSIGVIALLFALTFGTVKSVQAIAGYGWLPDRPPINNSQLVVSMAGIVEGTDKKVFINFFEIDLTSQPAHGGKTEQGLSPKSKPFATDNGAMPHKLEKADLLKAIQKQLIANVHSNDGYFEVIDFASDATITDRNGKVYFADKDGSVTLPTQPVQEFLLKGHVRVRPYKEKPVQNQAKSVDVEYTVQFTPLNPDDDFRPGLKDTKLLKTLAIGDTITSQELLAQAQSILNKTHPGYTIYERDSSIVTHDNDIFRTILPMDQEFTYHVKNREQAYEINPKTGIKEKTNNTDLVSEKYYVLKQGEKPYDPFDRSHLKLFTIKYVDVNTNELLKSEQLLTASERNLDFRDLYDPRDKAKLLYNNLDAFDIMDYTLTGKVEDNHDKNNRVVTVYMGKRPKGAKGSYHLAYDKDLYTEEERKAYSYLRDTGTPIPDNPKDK

[25] = target: T7, Short transient receptor potential channel 4 (Mus musculus, UniProt Q9QUQ5); experiment: calcium entry via TRPC4 opening agents – cell-based, HEK293 TRPC4/mu-opioid, Fluo-4 calcium, dose response (AID 434937); assay type: functional
T7 sequence (Q9QUQ5 whole entry): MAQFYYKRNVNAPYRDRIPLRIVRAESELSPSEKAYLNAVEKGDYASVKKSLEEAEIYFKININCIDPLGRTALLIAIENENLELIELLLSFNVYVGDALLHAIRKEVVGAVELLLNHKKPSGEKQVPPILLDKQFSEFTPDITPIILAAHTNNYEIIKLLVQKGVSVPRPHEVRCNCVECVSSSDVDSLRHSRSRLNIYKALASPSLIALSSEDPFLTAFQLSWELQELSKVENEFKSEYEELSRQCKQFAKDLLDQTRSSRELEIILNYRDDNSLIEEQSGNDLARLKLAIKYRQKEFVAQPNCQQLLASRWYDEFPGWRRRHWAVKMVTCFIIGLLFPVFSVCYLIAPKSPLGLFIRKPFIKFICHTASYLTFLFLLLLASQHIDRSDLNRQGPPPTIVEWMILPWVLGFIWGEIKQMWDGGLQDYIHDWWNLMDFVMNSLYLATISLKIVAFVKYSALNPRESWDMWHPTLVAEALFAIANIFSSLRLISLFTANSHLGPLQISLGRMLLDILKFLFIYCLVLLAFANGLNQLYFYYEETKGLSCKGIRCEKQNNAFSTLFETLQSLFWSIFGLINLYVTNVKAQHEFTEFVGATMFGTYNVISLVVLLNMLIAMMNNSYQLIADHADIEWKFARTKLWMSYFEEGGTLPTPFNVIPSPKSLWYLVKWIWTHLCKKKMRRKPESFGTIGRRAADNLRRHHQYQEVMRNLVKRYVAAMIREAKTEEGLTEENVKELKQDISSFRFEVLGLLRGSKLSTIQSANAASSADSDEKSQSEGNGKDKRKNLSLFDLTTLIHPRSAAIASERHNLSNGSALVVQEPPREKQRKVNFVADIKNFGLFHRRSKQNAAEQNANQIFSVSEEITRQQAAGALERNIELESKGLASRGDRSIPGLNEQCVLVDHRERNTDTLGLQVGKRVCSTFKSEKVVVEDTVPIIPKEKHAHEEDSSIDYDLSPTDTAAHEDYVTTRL

[26] = HPDE-C7 pancreatic duct cell viability loss – fluorescence, HTS (AID 430); assay type: functional, cell-based; details: Homo sapiens
[27] = viability loss of HPDE-C7K cells – cell-based, fluorescence, HTS, primary screen (AID 431); assay type: functional; details: Homo sapiens
[28] = target: T3, Cytochrome P450 3A4
[29] = target: T1, Cytochrome P450 2C9
[30] = target: Cytochrome P450 2C19 (Homo sapiens, UniProt P33261); experiment: Cytochrome panel assay with activity outcomes. Panel member name: p450-cyp2c19 Compounds with AC50 equal or less than 10 uM are considered active; assay type: functional; details: read-out: AC50
Chain of Cytochrome P450 2C19 (P33261 whole entry): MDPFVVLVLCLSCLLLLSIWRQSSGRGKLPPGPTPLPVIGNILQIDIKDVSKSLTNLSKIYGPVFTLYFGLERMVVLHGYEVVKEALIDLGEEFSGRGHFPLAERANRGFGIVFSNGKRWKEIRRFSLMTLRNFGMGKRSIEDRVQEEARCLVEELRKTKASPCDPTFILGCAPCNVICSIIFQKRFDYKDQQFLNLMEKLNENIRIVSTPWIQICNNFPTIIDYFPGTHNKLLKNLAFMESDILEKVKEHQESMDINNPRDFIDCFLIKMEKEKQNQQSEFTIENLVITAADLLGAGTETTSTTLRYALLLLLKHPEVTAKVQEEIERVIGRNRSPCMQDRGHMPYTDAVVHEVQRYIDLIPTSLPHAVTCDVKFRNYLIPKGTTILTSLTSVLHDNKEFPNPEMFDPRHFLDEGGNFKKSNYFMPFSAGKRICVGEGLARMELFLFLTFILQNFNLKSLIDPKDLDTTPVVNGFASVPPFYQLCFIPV

Chain of Peroxisome proliferator-activated receptor gamma/Nuclear receptor coactivator 2 (P37231 whole entry): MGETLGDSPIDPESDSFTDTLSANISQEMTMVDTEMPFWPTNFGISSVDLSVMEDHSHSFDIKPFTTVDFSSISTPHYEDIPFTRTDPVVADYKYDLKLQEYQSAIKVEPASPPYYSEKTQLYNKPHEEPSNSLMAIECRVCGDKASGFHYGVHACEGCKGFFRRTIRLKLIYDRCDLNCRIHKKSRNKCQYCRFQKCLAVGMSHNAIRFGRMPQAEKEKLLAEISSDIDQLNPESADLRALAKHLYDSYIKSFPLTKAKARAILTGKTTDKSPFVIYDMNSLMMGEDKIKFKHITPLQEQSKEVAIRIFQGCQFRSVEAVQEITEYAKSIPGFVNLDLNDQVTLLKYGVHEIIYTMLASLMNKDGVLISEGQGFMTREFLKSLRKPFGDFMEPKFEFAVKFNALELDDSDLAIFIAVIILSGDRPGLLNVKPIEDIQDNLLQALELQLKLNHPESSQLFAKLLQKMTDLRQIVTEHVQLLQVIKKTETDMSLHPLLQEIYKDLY
Chain of Peroxisome proliferator-activated receptor gamma/Nuclear receptor coactivator 2 (Q15596 whole entry, further chain): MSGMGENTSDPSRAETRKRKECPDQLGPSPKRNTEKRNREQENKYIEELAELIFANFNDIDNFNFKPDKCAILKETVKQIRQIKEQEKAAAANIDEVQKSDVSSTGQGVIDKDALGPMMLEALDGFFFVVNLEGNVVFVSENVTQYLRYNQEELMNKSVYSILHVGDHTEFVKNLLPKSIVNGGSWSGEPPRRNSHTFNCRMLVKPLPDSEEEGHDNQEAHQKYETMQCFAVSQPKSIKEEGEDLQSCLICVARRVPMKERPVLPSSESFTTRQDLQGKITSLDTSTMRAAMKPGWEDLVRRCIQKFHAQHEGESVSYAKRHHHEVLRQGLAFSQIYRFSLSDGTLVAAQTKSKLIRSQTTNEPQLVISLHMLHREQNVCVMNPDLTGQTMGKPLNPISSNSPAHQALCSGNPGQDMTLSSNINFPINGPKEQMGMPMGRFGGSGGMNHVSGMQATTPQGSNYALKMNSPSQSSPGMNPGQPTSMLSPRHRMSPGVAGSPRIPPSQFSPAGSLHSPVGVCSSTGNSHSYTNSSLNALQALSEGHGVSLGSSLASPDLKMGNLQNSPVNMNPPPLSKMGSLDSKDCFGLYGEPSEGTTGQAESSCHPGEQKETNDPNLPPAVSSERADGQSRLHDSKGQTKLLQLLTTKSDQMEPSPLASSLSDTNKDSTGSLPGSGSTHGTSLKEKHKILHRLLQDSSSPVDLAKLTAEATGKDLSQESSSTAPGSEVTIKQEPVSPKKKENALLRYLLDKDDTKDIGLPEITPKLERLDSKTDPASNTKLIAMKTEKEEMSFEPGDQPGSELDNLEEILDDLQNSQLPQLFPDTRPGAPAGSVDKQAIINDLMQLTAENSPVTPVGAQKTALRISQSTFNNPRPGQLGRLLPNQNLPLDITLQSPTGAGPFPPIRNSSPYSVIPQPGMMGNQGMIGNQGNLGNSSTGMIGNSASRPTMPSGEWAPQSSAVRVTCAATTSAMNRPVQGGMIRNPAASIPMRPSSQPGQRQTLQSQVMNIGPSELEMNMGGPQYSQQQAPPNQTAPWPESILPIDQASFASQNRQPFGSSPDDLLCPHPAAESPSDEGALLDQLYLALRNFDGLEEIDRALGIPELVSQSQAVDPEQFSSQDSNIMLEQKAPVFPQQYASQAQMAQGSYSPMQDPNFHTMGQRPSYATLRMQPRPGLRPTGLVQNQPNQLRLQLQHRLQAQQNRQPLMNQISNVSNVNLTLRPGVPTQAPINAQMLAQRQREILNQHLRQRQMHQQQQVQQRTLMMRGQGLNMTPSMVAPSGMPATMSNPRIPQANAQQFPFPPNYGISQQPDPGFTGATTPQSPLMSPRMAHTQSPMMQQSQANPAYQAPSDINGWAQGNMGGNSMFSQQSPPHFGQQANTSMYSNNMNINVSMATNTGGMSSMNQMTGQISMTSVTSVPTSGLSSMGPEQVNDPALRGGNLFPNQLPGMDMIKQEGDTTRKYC

c1ccc(-c2oc3ncnc(NCCCN4CCOCC4)c3c2-c2ccccc2)cc1
EC50 [1]: > 79.4 µM (not active)
EC50 [2]: > 79.4 µM (not active)
EC50 [3]: > 79.4 µM (not active)

COc1ccc(C(CN=C(S)NCc2ccccc2)N2CCCC2)cc1 (stereo not drawn)
IC50 [4]: 24.2 µM (active)

COc1ccc(/C=C/N(CCc2ccc(OC)c(OC)c2)C(=O)C(F)(F)F)cc1
AC50 [5]: 3.16 µM (inconclusive)
AC50 [6]: 7.94 µM (inconclusive)

O=C(NC1CCCCCC1)c1c(F)c(F)c(F)c(F)c1F
IC50 [7]: > 100 µM (not active)

CN(C)C(=O)c1ccc(-c2nc(N(C)C)c3ccccc3n2)cc1
AC50 [8]: 1.58 µM (inconclusive)
AC50 [6]: 12.6 µM (inconclusive)

O=C(Nc1ccccc1)N1C[C@@H]2N[C@H](C1)[C@@H]2c1ccc(/C=C/c2ccccc2)cc1
AC50 [9]: 22.6 µM (active)
AC50 [10]: 33.5 µM (active)
AC50 [11]: 7.17 µM (active)
AC50 [12]: 1.85 µM (active)

O=C(NC1=NCCS1)c1ccc2c(c1)C(=O)N(Cc1ccco1)C2=O
IC50 [7]: > 100 µM (not active)

O=[N+]([O-])c1ccc(-c2ccc(/C=N/O)o2)cc1
IC50 [13]: > 100 µM (active)

Nc1ccc(C(=O)Nc2ccc3c(O)cc(S(=O)(=O)O)cc3c2)cc1
AC50 [14]: 8.79 µM (active)
IC50 [15]: 4.61 µM (active)

COc1ccc(N2C(=O)/C(=C\NNS(=O)(=O)c3cccc([N+](=O)[O-])c3)c3ccccc3C2=O)cc1OC
EC50 [1]: > 79.4 µM (not active)
EC50 [2]: > 79.4 µM (not active)
EC50 [16]: 18.2 µM (active)
EC50 [17]: > 60 µM (not active)
EC50 [3]: > 79.4 µM (not active)

C=CCC1C=CC(Oc2ccc(OC)cc2)C(COC(=O)c2ccc(Br)cc2)O1 (stereo not drawn)
AC50 [5]: 3.98 µM (inconclusive)
AC50 [6]: 6.31 µM (inconclusive)

O=C(COC(=O)C1COc2ccccc2O1)NC(=O)Nc1ccc2c(c1)OCCO2 (stereo not drawn)
IC50 [13]: > 100 µM (active)

NS(=O)(=O)c1cccc(NC(=O)c2ccc3[nH]cnc3c2)c1
AC50 [14]: 17.3 µM (active)
IC50 [15]: 7.41 µM (active)

Cn1c(SCc2cccc3ccccc23)nnc1-c1ccco1
IC50 [4]: 46.5 µM (active)
CC50 [18]: > 50 µM (active)

CCCCC(=O)NNC(=S)NC(=O)C(c1ccccc1)c1ccccc1
EC50 [19]: 25.1 µM (active)
EC50 [20]: 0.788 µM (active)
EC50 [21]: 2.15 µM (active)
EC50 [22]: > 100 µM (active)
EC50 [23]: 19.6 µM (inconclusive)
EC50 [24]: > 150 µM (not active)
EC50 [25]: 2.66 µM (active)

COc1cc(NC(=O)C2CCCCN2)ccc1OCC(C)C (stereo not drawn)
EC50 [26]: > 20 µM (not active)
EC50 [27]: > 20 µM (not active)

O=C(OCN1C(=O)c2ccccc2C1=O)c1cccs1
IC50 [7]: > 100 µM (not active)

Cc1ccc2c(C)c(C(=O)N3CCN(c4ccncc4)CC3)oc2c1C
IC50 [4]: 23.9 µM (active)
CC50 [18]: 46.9 µM (active)

CC[C@H](C)N(C)C(=O)c1cc2ccccc2c(-c2ccccc2Cl)n1
AC50 [5]: 15.8 µM (inconclusive)
AC50 [28]: 20 µM (inconclusive)
AC50 [29]: 31.6 µM (inconclusive)

CC(=O)NC1(c2cccc(F)c2)CCN(CC(=O)NC2CCCCC2)CC1
EC50 [26]: > 20 µM (not active)
EC50 [27]: > 20 µM (not active)
AC50 [30]: 3.55 µM (inconclusive)

CN(C)c1ccc(/C=C(/C(=O)c2ccc(Cl)cc2Cl)n2cncn2)cc1
EC50 [22]: > 100 µM (active)
